Legend:
ventral prostate = experiment: Ventral Prostate Weight in vivo Assay (inhibition of testosterone-enhanced tissue weight); set-up: key: “active” in the Table below if the non weight adjusted prostate weight was ≦40 mg or the % Inhibition prostate weight, body weight adjusted was ≧40% @ 2 mg/day dosage; listed herein as “inactive” as they did not meet the specified criteria defined above; conditions: castrated male Sprague Dawley rats, test compound usually orally once daily with testosterone propionate s.c.; ventral prostate wet weight; criteria at 2 mg/day dosage
Experimental: (§1) Ventral Prostate and Levator Ani Weight in vivo Assay
(§2) Immature (approximately 50 g) castrated male Sprague Dawley rats (Charles River) were treated once daily for five days with test compound (usually given orally at 40 mg/kg in a volume of 0.3 mL, in 30% cyclodextrin or 0.5% methylcellulose vehicle) and with testosterone propionate (given subcutaneously by injection at the nape of the neck at 2 mg/kg, in a volume of 0.1 mL in sesame oil). On the sixth day, the rats were euthanized by asphyxiation in carbon dioxide. Ventral prostates and levator ani were removed and their wet weights determined. Test compound activity was determined as the percent inhibition of testosterone-enhanced tissue weights, with a vehicle-treated control group set to zero percent and a testosterone alone-treated control group set to 100%.
(§3) Mature (150- to 200-g) castrated male Sprague Dawley rats (Charles River) are similarly tested according to the procedure described above. The rats were dosed for two weeks, with 0.4 mg/kg testosterone propionate used as the positive control.
(§4) Representative compounds of the present invention were tested according to the procedure described above, with results as listed in Table 3 below. For effect on prostate—i.e. an antagonist—a test compound is listed as “active” in the Table below if the non weight adjusted prostate weight was ≦40 mg or the % Inhibition prostate weight, body weight adjusted was ≧40% @ 2 mg/day dosage. For effect on levator ani—i.e. an agonist—a test compound is listed as “active” in the Table below if the non weight adjusted levator ani weight was ≧40 mg or the % Stimulation levator ani weight, body weight adjusted was ≧40% at 2 mg/day dosage.

levator ani [1] = experiment: Levator Ani Weight in vivo Assay (stimulation of levator ani weight); set-up: key: “active” in the Table below if the non weight adjusted levator ani weight was ≧40 mg or the % Stimulation levator ani weight, body weight adjusted was ≧40% at 2 mg/day dosage; listed herein as “inactive” as they did not meet the specified criteria defined above; conditions: castrated male Sprague Dawley rats, test compound usually orally once daily with testosterone propionate s.c.; levator ani wet weight; criteria at 2 mg/day dosage
Experimental: as §1, §2, §3, §4

levator ani [2] = experiment: as above; set-up: key: “active” in the Table below if the non weight adjusted prostate weight was ≦40 mg or the % Inhibition prostate weight, body weight adjusted was ≧40% @ 2 mg/day dosage; listed herein as “inactive” as they did not meet the specified criteria defined above; conditions: castrated male Sprague Dawley rats, test compound usually orally once daily with testosterone propionate s.c.; levator ani wet weight; criteria at 2 mg/day dosage
Experimental: as §1, §2, §3, §4

| Compound | Prostate antagonist (ventral prostate) | L.A. agonist (levator ani [1]) | L.A. agonist (levator ani [2]) |
| --- | --- | --- | --- |
| C=C=CC(O)(c1nc2cc(Cl)c(Cl)cc2[nH]1)C(F)(F)F (single isomer, unassigned; (+)) [Compound 31, (+)-Enantiomer of 2-(5,6-Dichloro-1H-benzoimidazol-2-yl)-1,1,1-trifluoro-penta-3,4-dien-2-ol] | active | active |  |
| C=CC(O)(c1nc2cc(Cl)c(Cl)cc2[nH]1)C(F)(F)F (single isomer, unassigned; (+)) [Compound 43, (+)-2-(5,6-dichloro-1H-benzoimidazol-2-yl)-1,1,1-trifluoro-but-3-en-2-ol] | inactive | active |  |
| C#CCC(O)(c1nc2cc(Cl)c(Cl)cc2n1C)C(F)(F)F (single isomer, unassigned; (-)) [Compound 37, (−)-Enantiomer of 2-(5,6-Dichloro-1-methyl-1H-benzoimidazol-2-yl)-1,1,1-trifluoro-pent-4-yn-2-ol] | inactive | active |  |
| C#CCC(O)(c1nc2cc(Cl)c(Cl)cc2[nH]1)C(F)(F)F (centres unmarked) [Compound 2, 2-(5,6-Dichloro-1H-benzoimidazol-2-yl)-1,1,1-trifluoro-pent-4-yn-2-ol] | active | active |  |
| C=C=CC(O)(c1nc2cc(Cl)c(Cl)cc2[nH]1)C(F)(F)F (centres unmarked) [Compound 3, 2-(5,6-Dichloro-1H-benzoimidazol-2-yl)-1,1,1-trifluoro-penta-3,4-dien-2-ol] | active | active |  |
| C=CC(O)(c1nc2cc(Cl)c(Cl)cc2[nH]1)C(F)(F)F (centres unmarked) [Compound 4, 2-(5,6-Dichloro-1H-benzoimidazol-2-yl)-1,1,1-trifluoro-but-3-en-2-ol] | active | active |  |
| N#CCC(O)(c1nc2cc(Cl)c(Cl)cc2[nH]1)C(F)(F)F (centres unmarked) [Compound 7, 3-(5,6-Dichloro-1H-benzoimidazol-2-yl)-4,4,4-trifluoro-3-hydroxy-butyronitrile] | inactive | active |  |
| C/C=C\C(O)(c1nc2cc(Cl)c(Cl)cc2[nH]1)C(F)(F)F (stereo not drawn) [Compound 15, 2-(5,6-Dichloro-1H-benzoimidazol-2-yl)-1,1,1-trifluoro-cis-pent-3-en-2-ol] | active | active |  |
| C=C(CC(O)(c1nc2cc(Cl)c(Cl)cc2[nH]1)C(F)(F)F)C(=O)O (centres unmarked) [Compound 27, 2-[2-(5,6-Dichloro-1H-benzoimidazol-2-yl)-3,3,3-trifluoro-2-hydroxy-propyl]-acrylic acid] | inactive |  | inactive |
| C=CC(c1ccccc1)C(O)(c1nc2cc(Cl)c(Cl)cc2[nH]1)C(F)(F)F (centres unmarked) [Compound 28, 2-(5,6-Dichloro-1H-benzoimidazol-2-yl)-1,1,1-trifluoro-3-phenyl-pent-4-en-2-ol] | active |  | inactive |
| OC(CC#Cc1ccccc1)(c1nc2cc(Cl)c(Cl)cc2[nH]1)C(F)(F)F (centres unmarked) [Compound 34, 2-(5,6-Dichloro-1H-benzoimidazol-2-yl)-1,1,1-trifluoro-5-phenyl-pent-4-yn-2-ol] | inactive |  | inactive |
| C=CCC(O)(c1nc2cc(C#N)c(C(F)(F)F)cc2[nH]1)C(F)(F)F (centres unmarked) [Compound 38, 2-(1-Hydroxy-1-trifluoromethyl-but-3-enyl)-6-trifluoromethyl-1H-benzoimidazole-5-carbonitrile] | active | active |  |
| C#CCC(O)(c1nc2cc(C#N)c(C(F)(F)F)cc2[nH]1)C(F)(F)F (centres unmarked) [Compound 39, 2-(1-Hydroxy-1-trifluoromethyl-but-3-ynyl)-6-trifluoromethyl-1H-benzoimidazole-5-carbonitrile] | active |  | inactive |
| C=C=C(C)C(O)(c1nc2cc(C#N)c(C(F)(F)F)cc2[nH]1)C(F)(F)F (centres unmarked) [Compound 41, 2-(1-Hydroxy-2-methyl-1-trifluoromethyl-buta-2,3-dienyl)-6-trifluoromethyl-1H-benzoimidazole-5-carbonitrile] | active |  | inactive |
| CC(C)=C(C)C(O)(c1nc2cc(Cl)c(Cl)cc2[nH]1)C(F)(F)F (centres unmarked) [Compound 42, 2-(5,6-Dichloro-1H-benzoimidazol-2-yl)-1,1,1-trifluoro-3,4-dimethyl-pent-3-en-2-ol] | active |  | inactive |
| FC(F)(F)C1(c2nc3cc(Cl)c(Cl)cc3[nH]2)C=CCO1 (centres unmarked) [Compound 45, 5,6-Dichloro-2-(2-trifluoromethyl-2,5-dihydro-furan-2-yl)-1H-benzoimidazole] | inactive | active |  |
| FC(F)(F)C1(c2nc3cc(Cl)c(Cl)cc3[nH]2)CCCO1 (centres unmarked) [Compound 46, 5,6-Dichloro-2-(2-trifluoromethyl-tetrahydro-furan-2-yl)-1H-benzoimidazole] | active | active |  |
| FC(F)(F)C1(c2nc3cc(Cl)c(Cl)cc3n2Cc2ccccn2)OCCO1 [Compound 48] | inactive |  | inactive |
| OCC1COC(c2nc3cc(Cl)c(Cl)cc3[nH]2)(C(F)(F)F)O1 (centres unmarked) [Compound 49, [2-(5,6-Dichloro-1H-benzoimidazol-2-yl)-2-trifluoromethyl-[1,3]dioxolan-4-yl]-methanol] | active |  | inactive |
| FC(F)(F)C1(c2nc3cc(Cl)c(Cl)cc3[nH]2)OCCCO1 [Compound 51, 5,6-Dichloro-2-(2-trifluoromethyl-[1,3]dioxan-2-yl)-1H-benzimidazole] | active |  | inactive |
| N#Cc1cc2nc(C3(C(F)(F)F)OCCO3)[nH]c2cc1C(F)(F)F [Compound 59, 6-Trifluoromethyl-2-(2-trifluoromethyl-[1,3]dioxolan-2-yl)-1H-benzimidazole-5-carbonitrile] | active |  | inactive |
| FC(F)(F)C1(c2nc3cc(Cl)c(Cl)cc3[nH]2)NCCO1 (centres unmarked) [Compound 61, 5,6-Dichloro-2-(2-trifluoromethyl-oxazolidin-2-yl)-1H-benzimidazole] | active |  | inactive |

Reference: US8802865B2 (Janssen Pharmaceutica, NV, priority 2006, dated 2014)
